Source: PubChem BioAssay AID2060910 (Molecular Pharmacology Branch, DTP, NCI, 2025)
pIC50: −log10 of the molar value.

Test system: 242566-281-R-J2-PDC complex spheroid viability
Assay: Anticancer human tumor 242566-281-R-J2-PDC patient-derived pancreatic carcinoma cell line growth inhibition [RAS]
Conditions: for pIC50: curve of first compound; for viability, T/C: stronger effect = lower value
Summary of the method: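 Multi-cell-type spheroids: tumor cells plus HUVEC endothelial cells and mesenchymal stem cells. RAS-pathway inhibitors were combined with targeted agents, each dosed in half-log steps down from clinical Cmax, or from 10 microM when Cmax was unknown.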

[1] = second compound 0.000949 µM, first compound 0.00316 µM
[2] = second compound 0.000949 µM, first compound 0.01 µM
[3] = second compound 0.000949 µM, first compound 0.0316 µM
[4] = second compound 0.000949 µM, first compound 0.1 µM
[5] = second compound 0.000949 µM, first compound 0.316 µM
[6] = second compound 0.000949 µM, first compound 1 µM
[7] = second compound 0.003 µM, first compound 0.00316 µM
[8] = second compound 0.003 µM, first compound 0.01 µM
[9] = second compound 0.003 µM, first compound 0.0316 µM
[10] = second compound 0.003 µM, first compound 0.1 µM
[11] = second compound 0.003 µM, first compound 0.316 µM
[12] = second compound 0.003 µM, first compound 1 µM
[13] = second compound 0.00949 µM, first compound 0.00316 µM
[14] = second compound 0.00949 µM, first compound 0.01 µM
[15] = second compound 0.00949 µM, first compound 0.0316 µM
[16] = second compound 0.00949 µM, first compound 0.1 µM
[17] = second compound 0.00949 µM, first compound 0.316 µM
[18] = second compound 0.00949 µM, first compound 1 µM
[19] = second compound 0.03 µM, first compound 0.00316 µM
[20] = second compound 0.03 µM, first compound 0.01 µM
[21] = second compound 0.03 µM, first compound 0.0316 µM
[22] = second compound 0.03 µM, first compound 0.1 µM
[23] = second compound 0.03 µM, first compound 0.316 µM
[24] = second compound 0.03 µM, first compound 1 µM
[25] = second compound 0.0949 µM, first compound 0.00316 µM
[26] = second compound 0.0949 µM, first compound 0.01 µM
[27] = second compound 0.0949 µM, first compound 0.0316 µM
[28] = second compound 0.0949 µM, first compound 0.1 µM
[29] = second compound 0.0949 µM, first compound 0.316 µM
[30] = second compound 0.0949 µM, first compound 1 µM
[31] = second compound 0.3 µM, first compound 0.00316 µM
[32] = second compound 0.3 µM, first compound 0.01 µM
[33] = second compound 0.3 µM, first compound 0.0316 µM
[34] = second compound 0.3 µM, first compound 0.1 µM
[35] = second compound 0.3 µM, first compound 0.316 µM
[36] = second compound 0.3 µM, first compound 1 µM
[37] = second compound 0.000949 µM, first compound 0.000949 µM
[38] = second compound 0.000949 µM, first compound 0.003 µM
[39] = second compound 0.000949 µM, first compound 0.00949 µM
[40] = second compound 0.000949 µM, first compound 0.03 µM
[41] = second compound 0.000949 µM, first compound 0.0949 µM
[42] = second compound 0.000949 µM, first compound 0.3 µM
[43] = second compound 0.003 µM, first compound 0.000949 µM
[44] = second compound 0.003 µM, first compound 0.003 µM
[45] = second compound 0.003 µM, first compound 0.00949 µM
[46] = second compound 0.003 µM, first compound 0.03 µM
[47] = second compound 0.003 µM, first compound 0.0949 µM
[48] = second compound 0.003 µM, first compound 0.3 µM
[49] = second compound 0.00949 µM, first compound 0.000949 µM
[50] = second compound 0.00949 µM, first compound 0.003 µM
[51] = second compound 0.00949 µM, first compound 0.00949 µM
[52] = second compound 0.00949 µM, first compound 0.03 µM
[53] = second compound 0.00949 µM, first compound 0.0949 µM
[54] = second compound 0.00949 µM, first compound 0.3 µM
[55] = second compound 0.03 µM, first compound 0.000949 µM
[56] = second compound 0.03 µM, first compound 0.003 µM
[57] = second compound 0.03 µM, first compound 0.00949 µM
[58] = second compound 0.03 µM, first compound 0.03 µM
[59] = second compound 0.03 µM, first compound 0.0949 µM
[60] = second compound 0.03 µM, first compound 0.3 µM
[61] = second compound 0.0949 µM, first compound 0.000949 µM
[62] = second compound 0.0949 µM, first compound 0.003 µM
[63] = second compound 0.0949 µM, first compound 0.00949 µM
[64] = second compound 0.0949 µM, first compound 0.03 µM
[65] = second compound 0.0949 µM, first compound 0.0949 µM
[66] = second compound 0.0949 µM, first compound 0.3 µM
[67] = second compound 0.3 µM, first compound 0.000949 µM
[68] = second compound 0.3 µM, first compound 0.003 µM
[69] = second compound 0.3 µM, first compound 0.00949 µM
[70] = second compound 0.3 µM, first compound 0.03 µM
[71] = second compound 0.3 µM, first compound 0.0949 µM
[72] = second compound 0.3 µM, first compound 0.3 µM
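Further: spheroids exposed to compound for 7 days before readout.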
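Wherever viability, T/C is given: 100% = DMSO vehicle control wells.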

C=CC(=O)N1CCN(c2nc(OCC3CCCN3C)nc3c(F)c(-c4nc(N)cc(C)c4C(F)(F)F)c(Cl)cc23)C(C)C1 (stereo not drawn) + CCn1c(-c2cc(N3CCN(C)CC3)cnc2C(C)OC)c2c3cc(ccc31)-c1csc(n1)CC(NC(=O)C1CC1C)C(=O)N1CCCC(N1)C(=O)OCC(C)(C)C2
pIC50 (second compound 0.000949 µM): < 6.00
pIC50 (second compound 0.003 µM): < 6.00
pIC50 (second compound 0.00949 µM): > 8.50
pIC50 (second compound 0.03 µM): > 8.50
pIC50 (second compound 0.0949 µM): > 8.50
pIC50 (second compound 0.3 µM): > 8.50
viability, T/C [1]: 91.5%
viability, T/C [2]: 90.3%
viability, T/C [3]: 69.8%
viability, T/C [4]: 96.7%
viability, T/C [5]: 86.9%
viability, T/C [6]: 59.6%
viability, T/C [7]: 80.6%
viability, T/C [8]: 62.2%
viability, T/C [9]: 67.8%
viability, T/C [10]: 70.5%
viability, T/C [11]: 76.5%
viability, T/C [12]: 51.7%
viability, T/C [13]: 46.6%
viability, T/C [14]: 39.8%
viability, T/C [15]: 44.3%
viability, T/C [16]: 47.3%
viability, T/C [17]: 43.1%
viability, T/C [18]: 41.3%
viability, T/C [19]: 33.7%
viability, T/C [20]: 32.1%
viability, T/C [21]: 30.3%
viability, T/C [22]: 30.5%
viability, T/C [23]: 23.8%
viability, T/C [24]: 26.9%
viability, T/C [25]: 25.1%
viability, T/C [26]: 22.6%
viability, T/C [27]: 23.1%
viability, T/C [28]: 24.5%
viability, T/C [29]: 20.1%
viability, T/C [30]: 26%
viability, T/C [31]: 21.6%
viability, T/C [32]: 20.6%
viability, T/C [33]: 21.7%
viability, T/C [34]: 20.6%
viability, T/C [35]: 19.8%
viability, T/C [36]: 20.2%

CC1(C)CCC(Nc2ncc(C(F)(F)F)c(-c3c[nH]c4c(P(C)(C)=O)c(C#N)ccc34)n2)CN1 (stereo not drawn) + CCn1c(-c2cc(N3CCN(C)CC3)cnc2C(C)OC)c2c3cc(ccc31)-c1csc(n1)CC(NC(=O)C1CC1C)C(=O)N1CCCC(N1)C(=O)OCC(C)(C)C2
pIC50 (second compound 0.000949 µM): < 6.52
pIC50 (second compound 0.003 µM): < 6.52
pIC50 (second compound 0.00949 µM): > 9.02
pIC50 (second compound 0.03 µM): > 9.02
pIC50 (second compound 0.0949 µM): > 9.02
pIC50 (second compound 0.3 µM): > 9.02
viability, T/C [37]: 101%
viability, T/C [38]: 98%
viability, T/C [39]: 73.5%
viability, T/C [40]: 88%
viability, T/C [41]: 85.3%
viability, T/C [42]: 61.3%
viability, T/C [43]: 81.6%
viability, T/C [44]: 69.6%
viability, T/C [45]: 63.8%
viability, T/C [46]: 67.8%
viability, T/C [47]: 68.3%
viability, T/C [48]: 48.8%
viability, T/C [49]: 49.6%
viability, T/C [50]: 39.9%
viability, T/C [51]: 45.5%
viability, T/C [52]: 39.3%
viability, T/C [53]: 35.5%
viability, T/C [54]: 36%
viability, T/C [55]: 30.7%
viability, T/C [56]: 32.9%
viability, T/C [57]: 30.2%
viability, T/C [58]: 27.8%
viability, T/C [59]: 19.6%
viability, T/C [60]: 27.2%
viability, T/C [61]: 22.5%
viability, T/C [62]: 24.8%
viability, T/C [63]: 21.6%
viability, T/C [64]: 21.6%
viability, T/C [65]: 19.4%
viability, T/C [66]: 23.6%
viability, T/C [67]: 21.6%
viability, T/C [68]: 19.4%
viability, T/C [69]: 21.3%
viability, T/C [70]: 17.5%
viability, T/C [71]: 18.6%
viability, T/C [72]: 18.3%

CCc1c2c(nc3ccc(O)cc13)-c1cc3c(c(=O)n1C2)COC(=O)[C@]3(O)CC + CCn1c(-c2cc(N3CCN(C)CC3)cnc2C(C)OC)c2c3cc(ccc31)-c1csc(n1)CC(NC(=O)C1CC1C)C(=O)N1CCCC(N1)C(=O)OCC(C)(C)C2
pIC50 (second compound 0.000949 µM): 7.84
pIC50 (second compound 0.003 µM): 8.17
pIC50 (second compound 0.00949 µM): > 9.02
pIC50 (second compound 0.03 µM): > 9.02
pIC50 (second compound 0.0949 µM): > 9.02
pIC50 (second compound 0.3 µM): > 9.02
viability, T/C [37]: 101%
viability, T/C [38]: 89%
viability, T/C [39]: 49.6%
viability, T/C [40]: 40.2%
viability, T/C [41]: 22.3%
viability, T/C [42]: 9.11%
viability, T/C [43]: 92.3%
viability, T/C [44]: 62.8%
viability, T/C [45]: 43.8%
viability, T/C [46]: 29.8%
viability, T/C [47]: 19.4%
viability, T/C [48]: 8.62%
viability, T/C [49]: 48.8%
viability, T/C [50]: 39.1%
viability, T/C [51]: 38.8%
viability, T/C [52]: 24.8%
viability, T/C [53]: 17.9%
viability, T/C [54]: 12.2%
viability, T/C [55]: 33%
viability, T/C [56]: 32.8%
viability, T/C [57]: 27%
viability, T/C [58]: 21.1%
viability, T/C [59]: 13.9%
viability, T/C [60]: 11.9%
viability, T/C [61]: 22.9%
viability, T/C [62]: 24.1%
viability, T/C [63]: 21.8%
viability, T/C [64]: 15.9%
viability, T/C [65]: 11.2%
viability, T/C [66]: 9.7%
viability, T/C [67]: 22.7%
viability, T/C [68]: 20.4%
viability, T/C [69]: 18.1%
viability, T/C [70]: 12.5%
viability, T/C [71]: 13.3%
viability, T/C [72]: 8.58%

C=CC(=O)Nc1cc(Nc2nccc(-c3cn(C)c4ccccc34)n2)c(OC)cc1N(C)CCN(C)C + CCn1c(-c2cccnc2C(C)OC)c2c3cc(ccc31)N1CCOC(CC(NC(=O)C(C(C)C)N(C)C(=O)C3(F)CCN(C(=O)C#CC(C)(C)N(C)C)CC3)C(=O)N3CCCC(N3)C(=O)OCC(C)(C)C2)C1
pIC50 (second compound 0.000949 µM): < 6.00
pIC50 (second compound 0.003 µM): < 6.00
pIC50 (second compound 0.00949 µM): < 6.00
pIC50 (second compound 0.03 µM): < 6.00
pIC50 (second compound 0.0949 µM): 6.01
pIC50 (second compound 0.3 µM): 6.12
viability, T/C [1]: 87.8%
viability, T/C [2]: 107%
viability, T/C [3]: 82.5%
viability, T/C [4]: 91%
viability, T/C [5]: 86.7%
viability, T/C [6]: 50.3%
viability, T/C [7]: 131%
viability, T/C [8]: 95%
viability, T/C [9]: 92.2%
viability, T/C [10]: 84.3%
viability, T/C [11]: 89.8%
viability, T/C [12]: 47.2%
viability, T/C [13]: 119%
viability, T/C [14]: 95.8%
viability, T/C [15]: 82.8%
viability, T/C [16]: 102%
viability, T/C [17]: 77.4%
viability, T/C [18]: 51.1%
viability, T/C [19]: 97.6%
viability, T/C [20]: 95.3%
viability, T/C [21]: 99.1%
viability, T/C [22]: 93.6%
viability, T/C [23]: 66%
viability, T/C [24]: 52.2%
viability, T/C [25]: 98.5%
viability, T/C [26]: 98.7%
viability, T/C [27]: 99.2%
viability, T/C [28]: 83.5%
viability, T/C [29]: 61.3%
viability, T/C [30]: 49.5%
viability, T/C [31]: 94.9%
viability, T/C [32]: 86.9%
viability, T/C [33]: 78%
viability, T/C [34]: 70.4%
viability, T/C [35]: 56.5%
viability, T/C [36]: 47.8%
